Patent US11529350B2, “Tyrosine kinase non-receptor 1 (TNK1) inhibitors and uses thereof” (Sumitomo Pharma Oncology, Inc., priority 2019, dated 2022)

Key:
[1] = tested on: phospho-STAT5 in L540 cells; assay: In vitro pSTAT5 assay (ELISA) in L540 cells; assay type: cell-based; conditions: Homo sapiens, L-540, 24 hours, normalized to cell viability, read-out: P-STAT5 Assay IC50
Procedure: The L540 cell line harbors a truncating mutation in the C-terminal regulatory region of the protein. As a consequence, TNK1 in L540 cells is constitutively active in phosphorylating key proteins, including STAT5. In TNK1 wild-type conditions (e.g., K562 CML cells), STAT5 phosphorylation is achieved in a TNK1-independent fashion. As such, reductions in phospho-STAT5 signal specific to the L540 cells are a good readout of TNK1 inhibitor function.
Methods: The in vitro pSTAT5 assay was performed with STAT5 AB (pY964/699) SimpleStep ELISA Kit (Abcam No. ab176656) according to the manufacturer's protocol. Briefly, L540 cells were grown in RPMI1640 media under standard culture conditions (10% FBS with penicillin/streptomycin). To assess test compound effects, cells were plated in 96 well plates (250,000 cells/mL) and allowed to grow overnight. Cells were subsequently treated with varying concentrations of test compound for 24 hours, before being harvested and interrogated with the STAT5 AB (pY964/699) SimpleStep ELISA Kit according to the manufacturer's protocol. Phospho-STAT5 signal was normalized to cell viability, as assessed by the CellTiter-Glo assay (Promega, Cat. No. G7570) on treated cells. TNK1 inhibitor IC50s were determined using Graphpad Prism software on normalized phospho-STAT5 measurements.

TNK1 [2] = target: T1, TNK1 (Homo sapiens, UniProt Q13470); assay: TNK1 NanoBRET target engagement assay (HEK293); assay type: cell-based; parameters: host or cells: HEK293; conditions: HEK293 cells, 2 hours; read-out: NanoBRET TE Assay (HEK293) IC50
T1 sequence (Q13470 1-666): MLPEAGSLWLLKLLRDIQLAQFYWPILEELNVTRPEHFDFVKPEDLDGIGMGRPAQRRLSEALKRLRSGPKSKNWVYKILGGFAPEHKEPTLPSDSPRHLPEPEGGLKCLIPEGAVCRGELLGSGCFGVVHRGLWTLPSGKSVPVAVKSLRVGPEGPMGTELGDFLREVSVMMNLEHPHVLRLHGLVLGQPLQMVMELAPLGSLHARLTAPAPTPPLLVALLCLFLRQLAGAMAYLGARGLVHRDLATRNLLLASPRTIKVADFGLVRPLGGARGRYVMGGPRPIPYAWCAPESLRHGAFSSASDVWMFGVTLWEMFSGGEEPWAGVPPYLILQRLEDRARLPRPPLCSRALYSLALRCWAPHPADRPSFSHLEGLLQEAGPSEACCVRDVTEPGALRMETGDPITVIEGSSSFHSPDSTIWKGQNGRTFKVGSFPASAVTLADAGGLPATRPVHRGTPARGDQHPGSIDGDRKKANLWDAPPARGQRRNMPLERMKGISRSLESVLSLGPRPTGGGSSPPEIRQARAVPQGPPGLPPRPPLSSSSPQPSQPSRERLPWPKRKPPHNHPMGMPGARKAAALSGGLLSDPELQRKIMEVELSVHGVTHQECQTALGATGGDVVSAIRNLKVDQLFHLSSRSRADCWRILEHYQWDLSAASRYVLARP
Source text: The NanoBRET target engagement (TE) assay (Promega, Madison, Wis.) enables the interrogation of the displacement of a tracer compound in the active site of a recombinant kinase by a test compound in the intracellular setting. The assay enables simultaneous testing of permeability, solubility, and kinase inhibition, and tests the specific interaction of test agents with a kinase of interest, here, TNK1. The assay is based on the principle of bioluminescence resonance energy transfer (BRET). In the assay, a plasmid-encoded, luciferase-tagged form of TNK1 is transfected into cells. A tracer compound is tagged with a fluorophore that fluoresces when bound to the TNK1 protein. Readout is luminescence and fluorescence. Test compounds show activity by displacing the tracer, thus disrupting BRET.
Methods: The TNK1 NanoBRET TE assays were performed according to the manufacturer's protocol. Briefly, Nanoluc-TNK1 Fusion Vector (Promega, Madison, Wis., Cat. No. NV2181) was transfected into HEK293 cells in bulk (8×10^6 cells in a T175 flask). Up to 30 hours post-transfection, cells were harvested by trypsinization, resuspended at a concentration of 2×10^5 cells/mL, and seeded in 96-well plates at 85 μL/well. A test compound and the K5 tracer were added to each well, and the cells were incubated for 2 hours. Luminescence ([…]) and fluorescence ([…]) were measured to determine a BRET ratio. IC50 values were determined from the BRET ratios using the Graphpad Prism software (GraphPad Software, San Diego, Calif.).

TNK1 [3] = target: T1, TNK1; assay: RBC HotSpot Kinase Assay; assay type: biochemical; parameters: purchased Reaction Biology Corp., Malvern, Pa; conditions: ATP 10 μM
Procedure: The RBC HotSpot Kinase assay (Reaction Biology Corp., Malvern, Pa.) was used to evaluate the ability of test compounds to modulate (e.g., inhibit) the enzymatic activity of human TNK1 (UniProt Accession No. Q13470) in the following reaction:
Reagent: Base Reaction buffer; 20 mM Hepes (pH 7.5), 10 mM MgCl2, 1 mM EGTA, 0.02% Brij35, 0.02 mg/ml BSA, 0.1 mM Na3VO4, 2 mM DTT, 1% DMSO. Required cofactors were added individually to each kinase reaction.
Compound handling: Test compounds were dissolved in 100% DMSO to specific concentration. The serial dilution was conducted by Integra Viaflo Assist in DMSO.
1. Prepared substrate (peptide substrate, poly[Glu:Tyr] (4:1), 0.2 mg/ml; ATP 10 μM) in freshly prepared Reaction Buffer;
2. Delivered any required cofactors to the substrate solution;
3. Delivered kinase (TNK1) into the substrate solution and gently mixed;
4. Delivered compounds in 100% DMSO into the kinase reaction mixture by Acoustic technology (Echo550; nanoliter range), incubated for 20 minutes at room temperature;
5. Delivered ^33P-ATP (specific activity 10 μCi/μl) into the reaction mixture to initiate the reaction;
6. Incubated for 2 hours at room temperature;
7. Detected radioactivity by filter-binding method;
8. Kinase activity data were expressed as the percent remaining kinase activity in test samples compared to vehicle (dimethyl sulfoxide) reactions. IC50 values and curve fits were obtained using Prism (GraphPad Software).

Row | Structure (SMILES) | IC50 [1] | IC50 (TNK1 [2]) | IC50 (TNK1 [3])
1 | COc1cc(N2CCN(C)CC2)c(C)cc1Nc1ncc(C(C)=O)c(Nc2cccnc2N(C)C)n1 [Example No. 12, 1-(4-((2-(dimethylamino)pyridin-3-yl)amino)-2-((2-methoxy-5-methyl-4-(4-methylpiperazin-1-yl)phenyl)amino)pyrimidin-5-yl)ethan-1-one] | > 50 nM | > 1000 nM | 15 to 50 nM
2 | COc1cc(N2CCN(C)CC2)c(C)cc1Nc1ncc(Cl)c(Nc2cccnc2N2CCCCC2)n1 [Example No. 14, 5-chloro-N2-(2-methoxy-5-methyl-4-(4-methylpiperazin-1-yl)phenyl)-N4-(2-(piperidin-1-yl)pyridin-3-yl)pyrimidine-2,4-diamine] | > 50 nM | > 1000 nM | 15 to 50 nM
3 | COc1cc(N2CCN(C)CC2)c(C)cc1Nc1ncc(Cl)c(Nc2cccnc2N2CCCCC2=O)n1 [Example No. 15, 1-(3-((5-chloro-2-((2-methoxy-5-methyl-4-(4-methylpiperazin-1-yl)phenyl)amino)pyrimidin-4-yl)amino)pyridin-2-yl)piperidin-2-one] | > 50 nM | 150 to 1000 nM | 15 to 50 nM
4 | COc1cc(N2CCN(C)CC2)ccc1Nc1ncc(Cl)c(Nc2cccnc2N(C)C)n1 [Example No. 16, 5-chloro-N4-(2-(dimethylamino)pyridin-3-yl)-N2-(2-methoxy-4-(4-methylpiperazin-1-yl)phenyl)pyrimidine-2,4-diamine] | 5 to 50 nM | 150 to 1000 nM | < 5 nM
5 | CN1CCN(c2ccc(Nc3ncc(Cl)c(Nc4cccnc4N(C)C)n3)c3ccccc23)CC1 [Example No. 17, 5-chloro-N4-(2-(dimethylamino)pyridin-3-yl)-N2-(4-(4-methylpiperazin-1-yl)naphthalen-1-yl)pyrimidine-2,4-diamine] | > 50 nM | > 1000 nM | 5 to 15 nM
6 | COc1cc(N2CCN(C)CC2)c(Cl)cc1Nc1ncc(Cl)c(Nc2cccnc2N2CCCCC2=O)n1 [Example No. 19, 1-(3-((5-chloro-2-((5-chloro-2-methoxy-4-(4-methylpiperazin-1-yl)phenyl)amino)pyrimidin-4-yl)amino)pyridin-2-yl)piperidin-2-one] | 5 to 50 nM | 150 to 1000 nM | 5 to 15 nM
7 | COc1cc(N2CCN(C)CC2)c(C)cc1Nc1ncc(C#N)c(Nc2cccnc2N(C)C)n1 [Example No. 20] |  | 150 to 1000 nM | 5 to 15 nM
8 | COc1cc(N2CCN(C)CC2)c(Cl)cc1Nc1ncc(Br)c(Nc2cccnc2N(C)C)n1 [Example No. 22, 5-bromo-N-(5-chloro-2-methoxy-4-(4-methylpiperazin-1-yl)phenyl)-N-(2-(dimethylamino)pyridin-3-yl)pyrimidine-2,4-diamine] |  |  | < 5 nM
9 | COc1cc(N2CCN(C)CC2)c(Cl)cc1Nc1ncc(Br)c(Nc2cccnc2N2CCCC2=O)n1 [Example No. 23, 1-(3-((5-bromo-2-((5-chloro-2-methoxy-4-(4-methylpiperazin-1-yl)phenyl)amino)pyrimidin-4-yl)amino)pyridin-2-yl)pyrrolidin-2-one] |  |  | < 5 nM
10 | CN1CCN(c2c(Cl)cc(Nc3ncc(Cl)c(Nc4cccnc4N4CCCC4=O)n3)c3cccnc23)CC1 [Example No. 24, 1-(3-((5-chloro-2-((7-chloro-8-(4-methylpiperazin-1-yl)quinolin-5-yl)amino)pyrimidin-4-yl)amino)pyridin-2-yl)pyrrolidin-2-one] |  |  | < 5 nM
11 | COc1cc(N2CCN(C)CC2)c(C)cc1Nc1ncc(Br)c(Nc2ccncc2N(C)C)n1 [Example No. 25, 5-bromo-N-(3-(dimethylamine)pyridin-4-yl)-N-(2-methoxy-5-methyl-4-(4-methylpiperazin-1-yl)phenyl)pyrimidine-2,4-diamine] |  |  | < 5 nM
12 | CN1CCN(c2c(Cl)cc(Nc3ncc(Cl)c(Nc4cccnc4N4CCCC4=O)n3)c3c2CCCO3)CC1 [Example No. 26, 1-(3-((5-chloro-2-((6-chloro-5-(4-methylpiperazin-1-yl)chroman-8-yl)amino)pyrimidin-4-yl)amino)pyridin-2-yl)pyrrolidin-2-one] |  |  | < 5 nM
13 | [2H]C([2H])([2H])N(c1ncccc1Nc1nc(Nc2cc(C)c(N3CCN(C)CC3)cc2OC)ncc1Br)C([2H])([2H])[2H] [Example No. 27, N^4-(2-(bis(methyl-d3)amino)pyridin-3-yl)-5-bromo-N-(2-methoxy-5-methyl-4-(4-methylpiperazin-1-yl)phenyl)pyrimidine-2,4-diamine] |  |  | < 5 nM
14 | COc1cc(N2CCNCC2)c(Cl)cc1Nc1ncc(Cl)c(Nc2cccnc2N2CCCC2=O)n1 [Example No. 28, 1-(3-((5-chloro-2-((5-chloro-2-methoxy-4-(piperazin-1-yl)phenyl)amino)pyrimidin-4-yl)amino)pyridin-2-yl)pyrrolidin-2-one] |  |  | < 5 nM
15 | [2H]C([2H])([2H])N1CCN(c2cc(OC)c(Nc3ncc(Cl)c(Nc4cccnc4N4CCCC4=O)n3)cc2Cl)CC1 [Example No. 29, 1-(3-((5-chloro-2-((5-chloro-2-methoxy-4-(4-(methyl-d3)piperazin-1-yl)phenyl)amino)pyrimidin-4-yl)amino)pyridin-2-yl)pyrrolidin-2-one] |  |  | < 5 nM
16 | COc1cc(N2CCN(C)CC2)c(C)cc1Nc1ncc(Cl)c(Nc2cccnc2N(C)C)n1 [compound 6, 5-chloro-N^4-(2-(dimethylamino)pyridin-3-yl)-N^2-(2-methoxy-5-methyl-4-(4-methylpiperazin-1-yl)phenyl)pyrimidine-2,4-diamine] | 5 to 50 nM | 150 to 1000 nM | < 5 nM
17 | COc1cc(N2CCN(CCO)CC2)c(Cl)cc1Nc1ncc(Cl)c(Nc2cccnc2N2CCCC2=O)n1 [compound 30, 1-(3-((5-chloro-2-((5-chloro-4-(4-(2-hydroxyethyl)piperazin-1-yl)-2-methoxyphenyl)amino)pyrimidin-4-yl)amino)pyridin-2-yl)pyrrolidin-2-one] |  |  | < 5 nM
